Reference: patent publication US8779005B2, “Salts of desvenlafaxine and a method of their preparation” (Zentiva k.s., priority 2009, dated 2014)

Experiments:
[1] = Measurement of equilibrium solubility; conditions: 24-hour stirring; for solubility thermodynamic at 24 h: 25 °C, thermodynamic from solid; for Equilibrium solubility at pH 2: pH 2 (0.01 M HCl), 25° C.; for Equilibrium solubility at pH 6.8: phosphate buffer of pH 6.8, 25° C.
[2] = Measurement of the dissolution rate (USP Wood Apparatus, rotary disk method); format: physicochemical; conditions: for Dissolution rate constants at pH 2: pH 2 (0.01 M HCl), 37° C.; for Dissolution rate constants at pH 2 / Dissolution rate constants at pH 6.8: rotary disk; for Dissolution rate constants at pH 6.8: phosphate buffer of pH 6.8, 37° C.
Description: Measurement of the Dissolution Rate The dissolution rate of desvenlafaxine salts (Table 2) in water at various pH values was measured in a Varian-Vankel System, USP Wood Apparatus (rotary disk method). A disk with the diameter of 5 mm was prepared by compression from about 0.2 g of the substance.

[3] = in vivo; cited from earlier work
[4] = 0.01 M HCl, pH 2, simulated gastric fluid, Equilibrium solubility at pH 2, pH 2 (0.01 M HCl)
[5] = phosphate buffer, pH 6.8, aqueous buffer, Equilibrium solubility at pH 6.8, phosphate buffer of pH 6.8, 25° C.
[6] = dihydrate, Hemioxalate Trihydrate

CN(C)CC(c1ccc(O)cc1)C1(O)CCCCC1.O=C(O)C(=O)O (centres unmarked) [Hydrogen oxalate hydrate, Desvenlafaxine Hydrogen Oxalate Hydrate]
solubility thermodynamic at 24 h [1, 4]: 89 mg/mL | solubility thermodynamic at 24 h [1, 5]: 63 mg/mL | Dissolution rate constants at pH 2 [2]: 7.1 mg/cm^2/min | Dissolution rate constants at pH 6.8 [2]: 6.0 mg/cm^2/min

CN(C)CC(c1ccc(O)cc1)C1(O)CCCCC1.O=C(O)CCC(=O)O (centres unmarked) [Hydrogen succinate hydrate, Desvenlafaxine hydrogen succinate]
solubility thermodynamic at 24 h [1, 4]: 53 mg/mL | solubility thermodynamic at 24 h [1, 5]: 58 mg/mL | Dissolution speed in water relative to hydrogen fumarate ([2]; in water, compared with hydrogen fumarate): approximately twice as fast | Dissolution rate constants at pH 2 [2]: 3.1 mg/cm^2/min | Dissolution rate constants at pH 6.8 [2]: 3.2 mg/cm^2/min | Biological availability (absorption of desvenlafaxine in rat intestine) relative to hydrogen fumarate [3]: roughly three times higher

CN(C)CC(c1ccc(O)cc1)C1(O)CCCCC1 (centres unmarked) [Base, Desvenlafaxine]
Equilibrium solubility at pH 2 [1]: 2 mg/ml | Equilibrium solubility at pH 6.8 [1]: 4 mg/ml | Dissolution rate constants at pH 2 [2]: 0.6 mg/cm^2/min | Dissolution rate constants at pH 6.8 [2]: 0.2 mg/cm^2/min

CN(C)CC(c1ccc(O)cc1)C1(O)CCCCC1 (centres unmarked) [Hemioxalate, hydrate, Desvenlafaxine Hemioxalate Trihydrate]
Equilibrium solubility at pH 2 [1, 6]: 86 mg/ml | Equilibrium solubility at pH 6.8 [1, 6]: 71 mg/ml | Dissolution rate constants at pH 2 ([2]; Hemioxalate Trihydrate): >10 mg/cm^2/min | Dissolution rate constants at pH 6.8 ([2]; Hemioxalate Trihydrate): >10 mg/cm^2/min

CN(C)CC(c1ccc(O)cc1)C1(O)CCCCC1.O=C(O)/C=C/C(=O)O (centres unmarked) [Hydrogen fumarate hydrate, Desvenlafaxine hydrogen fumarate]
solubility thermodynamic at 24 h [1, 4]: 8 mg/mL | solubility thermodynamic at 24 h [1, 5]: 8 mg/mL | Dissolution rate constants at pH 2 [2]: 0.8 mg/cm^2/min | Dissolution rate constants at pH 6.8 [2]: 0.8 mg/cm^2/min

CN(C)CC(c1ccc(O)cc1)C1(O)CCCCC1 (centres unmarked) [Hemioxalate, anhydrous, Anhydrous Desvenlafaxine Hemioxalate]
Equilibrium solubility at pH 2 [1]: 92 mg/ml | Equilibrium solubility at pH 6.8 [1]: 80 mg/ml | Dissolution rate constants at pH 2 [2]: 6.6 mg/cm^2/min | Dissolution rate constants at pH 6.8 [2]: 5.9 mg/cm^2/min
